In PMC8330742, “New benzothieno[2,3-c]pyridines as non-steroidal CYP17 inhibitors: design, synthesis, anticancer screening, apoptosis induction, and in silico ADME profile studies” (Journal of Enzyme Inhibition and Medicinal Chemistry, 2021):

Legend:
[1] = test system: CAKI-1; test: NCI-60 SRB screen; assay type: cell-based, human; conditions: Homo sapiens; CAKI-1; single dose 10^−5 M; read-out: Growth inhibition (%)
[2] = test system: NCI-H226; test: NCI-60 SRB screen; assay type: cell-based, human; conditions: Homo sapiens; NCI-H226; single dose 10^−5 M; read-out: Growth inhibition (%)
[3] = test system: SF-268; test: NCI-60 SRB screen; assay type: cell-based, human; conditions: Homo sapiens; SF-268; single dose 10^−5 M; read-out: Growth inhibition (%)
[4] = test system: SF-295; test: NCI-60 SRB screen; assay type: cell-based, human; conditions: Homo sapiens; SF-295; single dose 10^−5 M; read-out: Growth inhibition (%)
[5] = test system: SK-MEL-28; test: NCI-60 SRB screen; assay type: cell-based; conditions: Homo sapiens; SK-MEL-28; single dose 10^−5 M; read-out: Growth inhibition (%)
[6] = test system: SK-MEL-2; test: NCI-60 SRB screen; assay type: cell-based, human; conditions: Homo sapiens; SK-MEL-2; single dose 10^−5 M; read-out: Growth inhibition (%)
[7] = test system: ACHN; test: NCI-60 SRB screen; assay type: cell-based; conditions: Homo sapiens, single dose 10^−5 M, read-out: Growth inhibition (%)
[8] = test system: LOX IMVI; test: NCI-60 SRB screen; assay type: cell-based, human; conditions: Homo sapiens, single dose 10^−5 M, read-out: Growth inhibition (%)
[9] = test system: panel of 60 cancer cell lines; test: NCI-60 SRB screen, mean or range over the panel; assay type: cell-based, human; conditions: Homo sapiens; mean over the cell lines; single dose 10^−5 M; read-out: Mean growth inhibition (%)
[10] = test system: NCI/ADR-RES; test: NCI-60 SRB screen; assay type: cell-based, human; conditions: Homo sapiens, single dose 10^−5 M, read-out: Growth inhibition (%)
[11] = test system: SN12C; test: NCI-60 SRB screen; assay type: cell-based, human; conditions: Homo sapiens, SN12C; SN 12 C; single dose 10^−5 M; read-out: Growth inhibition (%)
[12] = test system: HT-29; test: NCI-60 SRB screen; assay type: cell-based; conditions: Homo sapiens; HT-29; single dose 10^−5 M; read-out: Growth inhibition (%)
[13] = test system: K-562; test: NCI-60 SRB screen; assay type: cell-based, human; conditions: Homo sapiens, K562; K-562; single dose 10^−5 M; read-out: Growth inhibition (%)
[14] = test system: UACC-257; test: NCI-60 SRB screen; assay type: cell-based, human; conditions: Homo sapiens, UACC-257; UACC-275 (so in the source); single dose 10^−5 M; read-out: Growth inhibition (%)
[15] = test system: NCI-H460; test: NCI-60 SRB screen; assay type: cell-based, human; conditions: Homo sapiens; NCI-H460; single dose 10^−5 M; read-out: Growth inhibition (%)
[16] = test system: HCT-116; test: NCI-60 SRB screen; assay type: cell-based, human; conditions: Homo sapiens; HCT-116; single dose 10^−5 M; read-out: Growth inhibition (%)
[17] = test system: HL-60(TB); test: NCI-60 SRB screen; assay type: cell-based, human; conditions: Homo sapiens; HL-60 (TB); single dose 10^−5 M; read-out: Growth inhibition (%)
[18] = test system: OVCAR-4; test: NCI-60 SRB screen; assay type: cell-based, human; conditions: Homo sapiens; OVCAR-4; single dose 10^−5 M; read-out: Growth inhibition (%)
[19] = test system: HOP-92; test: NCI-60 SRB screen; assay type: cell-based, human; conditions: Homo sapiens; HOP-92; single dose 10^−5 M; read-out: Growth inhibition (%)
[20] = test system: UO-31; test: NCI-60 SRB screen; assay type: cell-based, human; conditions: Homo sapiens; UO-31; single dose 10^−5 M; read-out: Growth inhibition (%)
[21] = test system: M14; test: NCI-60 SRB screen; assay type: cell-based, human; conditions: Homo sapiens; M14; single dose 10^−5 M; read-out: Growth inhibition (%)
[22] = test system: TK-10; test: NCI-60 SRB screen; assay type: cell-based, human; conditions: Homo sapiens; TK-10; single dose 10^−5 M; read-out: Growth inhibition (%)
[23] = test system: HCC-2998; test: NCI-60 SRB screen; assay type: cell-based, human; conditions: Homo sapiens; HCC-2998; single dose 10^−5 M; read-out: Growth inhibition (%)
[24] = test system: MOLT-4; test: NCI-60 SRB screen; assay type: cell-based; conditions: Homo sapiens; MOLT-4; single dose 10^−5 M; read-out: Growth inhibition (%)
[25] = test system: COLO 205; test: NCI-60 SRB screen; assay type: cell-based, human; conditions: Homo sapiens; COLO 205; single dose 10^−5 M; read-out: Growth inhibition (%)
[26] = test system: UACC-62; test: NCI-60 SRB screen; assay type: cell-based, human; conditions: Homo sapiens; UACC-62; single dose 10^−5 M; read-out: Growth inhibition (%)
[27] = test system: NCI-H522; test: NCI-60 SRB screen; assay type: cell-based, human; conditions: Homo sapiens; NCI-H522; single dose 10^−5 M; read-out: Growth inhibition (%)
[28] = test system: RXF 393; test: NCI-60 SRB screen; assay type: cell-based, human; conditions: Homo sapiens; RXF 393; single dose 10^−5 M; read-out: Growth inhibition (%)
[29] = test system: NCI-H322M; test: NCI-60 SRB screen; assay type: cell-based, human; conditions: Homo sapiens, single dose 10^−5 M, read-out: Growth inhibition (%)
[30] = test system: SK-MEL-5; test: NCI-60 SRB screen; assay type: cell-based, human; conditions: Homo sapiens; SK-MEL-5; single dose 10^−5 M; read-out: Growth inhibition (%)
[31] = test system: SR; test: NCI-60 SRB screen; assay type: cell-based; conditions: Homo sapiens, single dose 10^−5 M, read-out: Growth inhibition (%)
[32] = test system: SW-620; test: NCI-60 SRB screen; assay type: cell-based; conditions: Homo sapiens; SW-620; single dose 10^−5 M; read-out: Growth inhibition (%)
[33] = test system: A549/ATCC; test: NCI-60 SRB screen; assay type: cell-based, human; conditions: Homo sapiens, single dose 10^−5 M, read-out: Growth inhibition (%)
[34] = test system: HOP-62; test: NCI-60 SRB screen; assay type: cell-based, human; conditions: Homo sapiens; HOP-62; single dose 10^−5 M; read-out: Growth inhibition (%)
[35] = test system: KM12; test: NCI-60 SRB screen; assay type: cell-based, human; conditions: Homo sapiens; KM12; single dose 10^−5 M; read-out: Growth inhibition (%)
[36] = test system: OVCAR-8; test: NCI-60 SRB screen; assay type: cell-based, human; conditions: Homo sapiens; OVCAR-8; single dose 10^−5 M; read-out: Growth inhibition (%)
[37] = test system: SK-OV-3; test: NCI-60 SRB screen; assay type: cell-based, human; conditions: Homo sapiens; SK-OV-3; single dose 10^−5 M; read-out: Growth inhibition (%)
[38] = test system: MDA-MB-435; test: NCI-60 SRB screen; assay type: cell-based; conditions: Homo sapiens, MDA-MB-435, read-out: Growth inhibition (%)
[39] = test system: NCI-H23; test: NCI-60 SRB screen; assay type: cell-based, human; conditions: Homo sapiens; NCI-H23; single dose 10^−5 M; read-out: Growth inhibition (%)
[40] = test system: IGROV1; test: NCI-60 SRB screen; assay type: cell-based, human; conditions: Homo sapiens, IGROV-1; IGROV1; single dose 10^−5 M; read-out: Growth inhibition (%)
[41] = test system: EKVX; test: NCI-60 SRB screen; assay type: cell-based, human; conditions: Homo sapiens, single dose 10^−5 M, read-out: Growth inhibition (%)
[42] = test system: HCT-15; test: NCI-60 SRB screen; assay type: cell-based, human; conditions: Homo sapiens; HCT-15; single dose 10^−5 M; read-out: Growth inhibition (%)
[43] = test system: 786-0; test: NCI-60 SRB screen; assay type: cell-based; conditions: Homo sapiens; 786-0; single dose 10^−5 M; read-out: Growth inhibition (%)
[44] = test system: OVCAR-3; test: NCI-60 SRB screen; assay type: cell-based, human; conditions: Homo sapiens; OVCAR-3; single dose 10^−5 M; read-out: Growth inhibition (%)

`CCN1CCN(C2C(=O)NC(c3cccc([N+](=O)[O-])c3)c3sc4c(F)cccc4c32)CC1` (centres unmarked) [Compound 6a, 4-(4-Ethylpiperazin-1-yl)-8-fluoro-1-(3-nitrophenyl)-1,2-dihydro[1]benzo thieno[2,3-c]pyridin-3(4H)-one] was tested. Which inhibition at 10 µM [1] did it give?
Its inhibition at 10 µM is 18.4%.

What about the inhibition at 10 µM [2] of the same compound?
Its inhibition at 10 µM is 10%.

And the inhibition at 10 µM [3]?
Its inhibition at 10 µM is 7.67%.

And the inhibition at 10 µM [4]?
The inhibition at 10 µM was -3.39%.

And the inhibition at 10 µM [5]?
Its inhibition at 10 µM is -13%.

And the inhibition at 10 µM [6]?
Its inhibition at 10 µM is -13.3%.

What about the inhibition at 10 µM [7] of the same compound?
The inhibition at 10 µM was 6.81%.

What about the inhibition at 10 µM [8] of the same compound?
Its inhibition at 10 µM is -2.53%.

What about the inhibition at 10 µM [9] of the same compound?
Its inhibition at 10 µM is -0.71%.

What about the inhibition at 10 µM [10] of the same compound?
Its inhibition at 10 µM is -2.46%.

And the inhibition at 10 µM [11]?
The inhibition at 10 µM was 2.15%.

What about the inhibition at 10 µM [12] of the same compound?
Its inhibition at 10 µM is -2.32%.

And the inhibition at 10 µM [13]?
The inhibition at 10 µM was 11%.

What about the inhibition at 10 µM [14] of the same compound?
Its inhibition at 10 µM is -14.7%.

And the inhibition at 10 µM [15]?
The inhibition at 10 µM was 0.82%.

What about the inhibition at 10 µM [16] of the same compound?
Its inhibition at 10 µM is 6.68%.

And the inhibition at 10 µM [17]?
Its inhibition at 10 µM is -2%.

And the inhibition at 10 µM [18]?
Its inhibition at 10 µM is -6.65%.

What about the inhibition at 10 µM [19] of the same compound?
Its inhibition at 10 µM is -1.02%.

And the inhibition at 10 µM [20]?
The inhibition at 10 µM was 35.8%.

What about the inhibition at 10 µM [21] of the same compound?
Its inhibition at 10 µM is -1.65%.

And the inhibition at 10 µM [22]?
The inhibition at 10 µM was -51.9%.

What about the inhibition at 10 µM [23] of the same compound?
Its inhibition at 10 µM is -18.1%.

And the inhibition at 10 µM [24]?
The inhibition at 10 µM was 9.9%.

And the inhibition at 10 µM [25]?
Its inhibition at 10 µM is -13.8%.

What about the inhibition at 10 µM [26] of the same compound?
The inhibition at 10 µM was 8.9%.

What about the inhibition at 10 µM [27] of the same compound?
The inhibition at 10 µM was 0.67%.

And the inhibition at 10 µM [28]?
The inhibition at 10 µM was -24%.

And the inhibition at 10 µM [29]?
Its inhibition at 10 µM is 0.49%.

And the inhibition at 10 µM [30]?
The inhibition at 10 µM was -1.71%.

What about the inhibition at 10 µM [31] of the same compound?
Its inhibition at 10 µM is 8.6%.

And the inhibition at 10 µM [32]?
Its inhibition at 10 µM is 5.15%.

What about the inhibition at 10 µM [33] of the same compound?
The inhibition at 10 µM was -7.34%.

What about the inhibition at 10 µM [34] of the same compound?
The inhibition at 10 µM was 8.57%.

What about the inhibition at 10 µM [35] of the same compound?
The inhibition at 10 µM was -0.94%.

And the inhibition at 10 µM [36]?
Its inhibition at 10 µM is 2.02%.

And the inhibition at 10 µM [37]?
Its inhibition at 10 µM is -1.47%.

What about the inhibition at 10 µM [38] of the same compound?
The inhibition at 10 µM was -2.64%.

And the inhibition at 10 µM [39]?
Its inhibition at 10 µM is -1.88%.

What about the inhibition at 10 µM [40] of the same compound?
The inhibition at 10 µM was 16.4%.

What about the inhibition at 10 µM [41] of the same compound?
The inhibition at 10 µM was -2.24%.

And the inhibition at 10 µM [42]?
Its inhibition at 10 µM is -7.17%.

What about the inhibition at 10 µM [43] of the same compound?
Its inhibition at 10 µM is -15%.

What about the inhibition at 10 µM [44] of the same compound?
The inhibition at 10 µM was 0.35%.
